What was measured:
[1] = biological target: Phosphatidylinositol 4,5-bisphosphate 3-kinase catalytic subunit alpha isoform (Homo sapiens, UniProt P42336); assay: Inhibition of p110alpha
[2] = biological target: Phosphatidylinositol 4,5-bisphosphate 3-kinase catalytic subunit beta isoform (Homo sapiens, UniProt P42338); assay: Inhibition of p110beta
[3] = biological target: Phosphatidylinositol 4,5-bisphosphate 3-kinase catalytic subunit gamma isoform (Homo sapiens, UniProt P48736); assay: Inhibition of p110gamma
Chain of Phosphatidylinositol 4,5-bisphosphate 3-kinase catalytic subunit gamma isoform (P48736 whole entry, canonical isoform): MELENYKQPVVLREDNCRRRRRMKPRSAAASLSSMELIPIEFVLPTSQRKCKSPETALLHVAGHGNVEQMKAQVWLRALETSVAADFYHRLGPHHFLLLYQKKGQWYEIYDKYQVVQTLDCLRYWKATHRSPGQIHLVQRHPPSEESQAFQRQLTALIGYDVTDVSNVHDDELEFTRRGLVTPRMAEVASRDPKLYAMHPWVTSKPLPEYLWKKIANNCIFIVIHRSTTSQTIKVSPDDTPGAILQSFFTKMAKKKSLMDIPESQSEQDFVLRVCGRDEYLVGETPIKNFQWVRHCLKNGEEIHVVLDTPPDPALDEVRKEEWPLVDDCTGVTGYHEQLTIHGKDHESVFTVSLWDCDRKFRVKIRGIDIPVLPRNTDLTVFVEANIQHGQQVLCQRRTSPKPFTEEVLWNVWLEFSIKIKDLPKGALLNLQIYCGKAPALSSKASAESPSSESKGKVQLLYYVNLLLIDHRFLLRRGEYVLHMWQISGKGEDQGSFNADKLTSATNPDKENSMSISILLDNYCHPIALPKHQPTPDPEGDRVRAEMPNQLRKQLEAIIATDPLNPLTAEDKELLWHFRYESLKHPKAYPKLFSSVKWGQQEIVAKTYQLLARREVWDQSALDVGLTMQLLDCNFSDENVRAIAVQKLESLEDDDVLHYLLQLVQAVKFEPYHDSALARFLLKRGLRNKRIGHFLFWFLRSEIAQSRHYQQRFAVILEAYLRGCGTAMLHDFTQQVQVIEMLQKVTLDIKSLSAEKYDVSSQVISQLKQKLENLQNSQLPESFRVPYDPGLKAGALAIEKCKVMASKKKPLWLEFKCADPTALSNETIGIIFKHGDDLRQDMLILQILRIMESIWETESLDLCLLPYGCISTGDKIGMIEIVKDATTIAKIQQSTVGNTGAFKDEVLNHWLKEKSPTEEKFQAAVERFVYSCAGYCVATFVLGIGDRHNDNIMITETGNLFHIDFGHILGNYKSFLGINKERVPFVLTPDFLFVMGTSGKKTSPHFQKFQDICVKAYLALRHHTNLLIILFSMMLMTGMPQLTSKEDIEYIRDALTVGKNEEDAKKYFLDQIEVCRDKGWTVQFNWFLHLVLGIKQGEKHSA

Chain of Phosphatidylinositol 4,5-bisphosphate 3-kinase catalytic subunit beta isoform (P42338 whole entry, canonical isoform): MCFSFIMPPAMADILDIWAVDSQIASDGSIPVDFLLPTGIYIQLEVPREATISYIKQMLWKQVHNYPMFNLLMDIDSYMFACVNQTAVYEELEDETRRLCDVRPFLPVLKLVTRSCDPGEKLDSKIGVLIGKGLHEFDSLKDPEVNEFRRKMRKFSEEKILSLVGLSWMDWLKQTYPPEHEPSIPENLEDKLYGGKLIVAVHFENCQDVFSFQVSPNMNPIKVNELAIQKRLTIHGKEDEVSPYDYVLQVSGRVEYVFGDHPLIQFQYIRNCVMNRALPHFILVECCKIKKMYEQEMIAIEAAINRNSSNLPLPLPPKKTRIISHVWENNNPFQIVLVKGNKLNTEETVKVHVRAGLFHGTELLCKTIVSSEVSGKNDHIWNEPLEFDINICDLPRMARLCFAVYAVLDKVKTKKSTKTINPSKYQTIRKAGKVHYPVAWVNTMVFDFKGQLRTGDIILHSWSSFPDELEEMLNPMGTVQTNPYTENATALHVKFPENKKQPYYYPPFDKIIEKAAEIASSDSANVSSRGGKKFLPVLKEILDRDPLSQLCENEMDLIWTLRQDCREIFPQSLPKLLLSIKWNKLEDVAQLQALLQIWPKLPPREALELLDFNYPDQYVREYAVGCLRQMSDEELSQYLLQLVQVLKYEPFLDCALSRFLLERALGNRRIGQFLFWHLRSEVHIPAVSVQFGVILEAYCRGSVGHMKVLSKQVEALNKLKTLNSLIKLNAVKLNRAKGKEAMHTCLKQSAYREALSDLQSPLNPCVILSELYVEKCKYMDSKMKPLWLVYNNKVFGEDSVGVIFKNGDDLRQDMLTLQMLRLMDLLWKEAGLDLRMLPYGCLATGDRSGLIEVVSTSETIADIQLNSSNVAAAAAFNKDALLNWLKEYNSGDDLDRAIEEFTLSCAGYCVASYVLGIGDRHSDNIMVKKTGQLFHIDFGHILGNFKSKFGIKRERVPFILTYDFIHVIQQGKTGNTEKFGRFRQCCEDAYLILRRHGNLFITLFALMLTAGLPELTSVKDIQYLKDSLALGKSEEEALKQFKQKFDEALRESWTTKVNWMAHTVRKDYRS
Chain of Phosphatidylinositol 4,5-bisphosphate 3-kinase catalytic subunit alpha isoform (P42336 whole entry, canonical isoform): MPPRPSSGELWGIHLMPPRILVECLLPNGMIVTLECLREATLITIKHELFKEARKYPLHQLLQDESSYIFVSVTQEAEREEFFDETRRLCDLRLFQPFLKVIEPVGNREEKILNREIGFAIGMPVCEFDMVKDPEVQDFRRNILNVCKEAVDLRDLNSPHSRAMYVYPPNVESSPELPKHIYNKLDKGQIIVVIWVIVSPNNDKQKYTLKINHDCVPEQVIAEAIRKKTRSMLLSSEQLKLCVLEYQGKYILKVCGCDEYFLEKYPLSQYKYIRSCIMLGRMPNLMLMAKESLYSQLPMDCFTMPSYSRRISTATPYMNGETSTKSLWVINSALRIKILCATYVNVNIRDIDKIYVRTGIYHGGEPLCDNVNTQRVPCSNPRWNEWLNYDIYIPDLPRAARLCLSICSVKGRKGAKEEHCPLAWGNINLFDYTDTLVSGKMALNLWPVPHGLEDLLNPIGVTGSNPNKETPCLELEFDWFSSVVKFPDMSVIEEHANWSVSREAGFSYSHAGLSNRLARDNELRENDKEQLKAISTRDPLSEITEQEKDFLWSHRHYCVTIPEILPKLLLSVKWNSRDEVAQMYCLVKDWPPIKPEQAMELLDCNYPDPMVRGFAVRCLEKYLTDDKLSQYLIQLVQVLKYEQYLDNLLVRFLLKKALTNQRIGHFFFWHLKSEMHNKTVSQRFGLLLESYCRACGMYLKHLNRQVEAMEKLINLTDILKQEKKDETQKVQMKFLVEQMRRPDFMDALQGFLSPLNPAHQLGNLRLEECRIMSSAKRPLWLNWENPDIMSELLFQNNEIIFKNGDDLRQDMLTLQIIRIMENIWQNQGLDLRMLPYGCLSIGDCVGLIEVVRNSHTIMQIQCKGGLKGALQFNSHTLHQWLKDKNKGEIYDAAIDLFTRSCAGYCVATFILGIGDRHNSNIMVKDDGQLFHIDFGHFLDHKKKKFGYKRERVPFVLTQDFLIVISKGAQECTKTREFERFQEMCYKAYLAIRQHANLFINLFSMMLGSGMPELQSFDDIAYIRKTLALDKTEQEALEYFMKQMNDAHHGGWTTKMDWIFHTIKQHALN

IC50 [1] [µM]	IC50 [2] [µM]	IC50 [3] [µM]	SMILES
0.788	0.023	0.185	CC(=O)Nc1nc2ccc(-c3nn(Cc4cc5ccccc5nc4N4CCN(C)CC4)c4ncnc(N)c34)cc2s1
3.44	4.23	20	COc1ccccc1-n1c(SCC(=O)Nc2ccc3nccnc3c2)nc2c(c1=O)CCCC2
0.034	0.316	0.069	CC(C)n1nc(C#Cc2cccc(O)c2)c2c(N)ncnc21
0.4	10	10	COc1cc(Nc2nc3ccccc3nc2NS(=O)(=O)c2ccc(F)cc2)cc(OC)c1
0.137	0.009	0.004	CN1CCN(c2nc3ccccc3cc2Cn2nc(-c3ccc4nc(N)sc4c3)c3c(N)ncnc32)CC1
0.053	0.664	0.113	CC(C)n1nc(C#Cc2cccnc2)c2c(N)ncnc21
